We go through eleven compounds from ChEMBL document CHEMBL1687880, “Synthesis of cell-permeable stapled peptide dual inhibitors of the p53-Mdm2/Mdmx interactions via photoinduced cycloaddition” (Bioorg Med Chem Lett, 2011).

Calls of active or inactive are those of the source. The calls are words filed in the database; no cut-off is given here. Non-standard residues stand in square brackets, D forms with d. Residues, ends and D or L forms follow the SMILES beside them. *: point of attachment. Tetrazole5CO(2-(4-MeOPh)) = COc1ccc(-n2nnc(C(=O)*)n2)cc1; Trp(6-Cl) = N[C@@H](Cc1c[nH]c2cc(Cl)ccc12)C(=O)O; X1 = COc1ccc(N2N=C(C(=O)*)CC2C(N)=O)cc1; Methacryloyl = C=C(C)C(=O)*

The subject of the first data set is U2OS. In words: Drug uptake in human U2OS cells at 20 uM after 4 hrs by fluorescence microscopy. Format: ADME, cell-based.
For the compound `C=C(C)C(=O)NCCCC[C@H](NC(=O)[C@H](Cc1ccccc1)NC(=O)[C@@H](NC(=O)[C@H](CC(C)C)NC(C)=O)[C@@H](C)O)C(=O)N[C@@H](CCCN=C(N)N)C(=O)N[C@@H](Cc1ccc(O)cc1)C(=O)N[C@@H](Cc1c[nH]c2ccccc12)C(=O)N[C@@H](C)C(=O)N[C@@H](CCCN=C(N)N)C(=O)N[C@@H](CC(C)C)C(=O)N[C@@H](CCCCNC(=O)c1nnn(-c2ccc(OC)cc2)n1)C(=O)N[C@@H](CO)C(N)=O` (Ac-LTFK(Methacryloyl)RYWARLK(Tetrazole5CO(2-(4-MeOPh)))S-NH2), the Drug uptake result is listed as “Active”.

`C=C(C)C(=O)NCCCC[C@H](NC(=O)[C@H](Cc1ccccc1)NC(=O)[C@@H](NC(=O)[C@H](CC(C)C)NC(C)=O)[C@@H](C)O)C(=O)N[C@@H](Cc1cnc[nH]1)C(=O)N[C@@H](Cc1ccc(O)cc1)C(=O)N[C@@H](Cc1c[nH]c2ccccc12)C(=O)N[C@@H](C)C(=O)N[C@@H](CCCN=C(N)N)C(=O)N[C@@H](CC(C)C)C(=O)N[C@@H](CCCCNC(=O)c1nnn(-c2ccc(OC)cc2)n1)C(=O)N[C@@H](CO)C(N)=O`: the Drug uptake result is given as “Active”.

Consider `COc1ccc(N2N=C(C(=O)NCCCC[C@H](NC(=O)[C@H](CC(C)C)NC(=O)[C@H](CCC(N)=O)NC(=O)[C@H](CCCNC(=N)N)NC(=O)[C@H](Cc3c[nH]c4ccccc34)NC(=O)[C@H](Cc3ccc(O)cc3)NC(=O)[C@H](CCCNC(=N)N)NC(=O)[C@H](CCCCNC(C)=O)NC(=O)[C@H](Cc3ccccc3)NC(=O)[C@@H](NC(=O)[C@H](CC(C)C)NC(C)=O)[C@@H](C)O)C(=O)N[C@@H](CO)C(N)=O)CC2C(N)=O)cc1` (some centres not stated) (Ac-LTFK(Ac)RYWRQLK(X1)S-NH2), for which the Drug uptake entry is “Active”.

On to `C=C(C)C(=O)NCCCC[C@H](NC(=O)[C@H](Cc1ccccc1)NC(=O)[C@@H](NC(=O)[C@H](CC(C)C)NC(C)=O)[C@@H](C)O)C(=O)N[C@@H](CCCN=C(N)N)C(=O)N[C@@H](Cc1ccc(O)cc1)C(=O)N[C@@H](Cc1c[nH]c2cc(Cl)ccc12)C(=O)N[C@@H](CCCN=C(N)N)C(=O)N[C@@H](CCC(N)=O)C(=O)N[C@@H](CC(C)C)C(=O)N[C@@H](CCCCNC(=O)c1nnn(-c2ccc(OC)cc2)n1)C(=O)N[C@@H](CO)C(N)=O` (Ac-LTFK(Methacryloyl)RY[Trp(6-Cl)]RQLK(Tetrazole5CO(2-(4-MeOPh)))S-NH2), for which the Drug uptake result was “Active”.

Regarding `C=C(C)C(=O)NCCCC[C@H](NC(=O)[C@H](Cc1ccccc1)NC(=O)[C@@H](NC(=O)[C@H](CC(C)C)NC(C)=O)[C@@H](C)O)C(=O)N[C@@H](Cc1cnc[nH]1)C(=O)N[C@@H](Cc1ccc(O)cc1)C(=O)N[C@@H](Cc1c[nH]c2ccccc12)C(=O)N[C@@H](CCCN=C(N)N)C(=O)N[C@@H](CCC(N)=O)C(=O)N[C@@H](CC(C)C)C(=O)N[C@@H](CCCCNC(=O)c1nnn(-c2ccc(OC)cc2)n1)C(=O)N[C@@H](CO)C(N)=O`, the Drug uptake result is on record as “Active”.

In the case of `C=C(C)C(=O)NCCCC[C@H](NC(=O)[C@H](Cc1ccccc1)NC(=O)[C@@H](NC(=O)[C@H](CC(C)C)NC(C)=O)[C@@H](C)O)C(=O)N[C@@H](CCCNC(=N)N)C(=O)N[C@@H](Cc1ccc(O)cc1)C(=O)N[C@@H](Cc1c[nH]c2ccccc12)C(=O)N[C@@H](CCCNC(=N)N)C(=O)N[C@@H](CCC(N)=O)C(=O)N[C@@H](CC(C)C)C(=O)N[C@@H](CCCCNC(=O)c1nnn(-c2ccc(OC)cc2)n1)C(=O)N[C@@H](CO)C(N)=O` (Ac-LTFK(Methacryloyl)RYWRQLK(Tetrazole5CO(2-(4-MeOPh)))S-NH2), the Drug uptake result is given as “Active”.

The target of another data set is E3 ubiquitin-protein ligase Mdm2 (Homo sapiens, UniProt Q00987). Kind of data set: Inhibition of human GST-tagged Mdm2 expressed in Escherichia coli harboring integrated p53-Mmd2 protein assessed as blockade of enzyme-p53 interaction by ELISA assay. A general note: In an ELISA, binding on a coated surface is turned into a signal by an enzyme label.
Chain of E3 ubiquitin-protein ligase Mdm2 (Q00987 whole entry): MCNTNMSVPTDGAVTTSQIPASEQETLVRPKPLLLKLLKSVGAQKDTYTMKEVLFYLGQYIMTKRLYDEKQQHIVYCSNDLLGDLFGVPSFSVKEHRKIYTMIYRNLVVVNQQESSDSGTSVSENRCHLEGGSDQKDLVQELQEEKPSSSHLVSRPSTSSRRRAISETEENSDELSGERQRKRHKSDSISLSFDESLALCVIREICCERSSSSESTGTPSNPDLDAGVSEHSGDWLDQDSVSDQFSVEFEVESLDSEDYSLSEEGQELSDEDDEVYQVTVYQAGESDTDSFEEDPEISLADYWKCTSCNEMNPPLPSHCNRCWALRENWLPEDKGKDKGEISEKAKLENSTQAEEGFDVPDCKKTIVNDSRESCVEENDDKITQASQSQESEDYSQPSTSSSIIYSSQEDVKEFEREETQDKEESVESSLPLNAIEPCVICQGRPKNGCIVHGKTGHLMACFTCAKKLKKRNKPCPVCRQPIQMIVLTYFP
Consider Ac-LTFEHYWAK(Ac)LTS-NH2, for which the IC50 – broadly, the point on the concentration scale where inhibition reaches its midpoint – is under 48 nM.

As to `CC(=O)NCCCC[C@H](NC(=O)[C@H](Cc1ccccc1)NC(=O)[C@@H](NC(=O)[C@H](CC(C)C)NC(C)=O)[C@@H](C)O)C(=O)N[C@@H](Cc1cnc[nH]1)C(=O)N[C@@H](Cc1ccc(O)cc1)C(=O)N[C@@H](Cc1c[nH]c2ccccc12)C(=O)N[C@@H](C)C(=O)N[C@@H](CCC(N)=O)C(=O)N[C@@H](CC(C)C)C(=O)N[C@H](C(=O)N[C@@H](CO)C(N)=O)[C@@H](C)O`, the half-inhibitory concentration (IC50) is under 10 nM.

As for Ac-LTFEHYWK(Ac)QLTS-NH2, the IC50 is under 31 nM.

As for `CC(=O)NCCCC[C@H](NC(=O)[C@H](CC(C)C)NC(=O)[C@H](CCC(N)=O)NC(=O)[C@H](C)NC(=O)[C@H](Cc1c[nH]c2ccccc12)NC(=O)[C@H](Cc1ccc(O)cc1)NC(=O)[C@H](Cc1cnc[nH]1)NC(=O)[C@H](CCC(=O)O)NC(=O)[C@H](Cc1ccccc1)NC(=O)[C@@H](NC(=O)[C@H](CC(C)C)NC(C)=O)[C@@H](C)O)C(=O)N[C@@H](CO)C(N)=O`, the IC50 was under 48 nM.

The test system of another data set is U2OS. Kind of data set: Induction of p53-dependent luciferase activity in human U2OS cells at 20 uM. The format is functional, cell-based.
Turning to `COc1ccc(N2N=C(C(=O)NCCCC[C@H](NC(=O)[C@H](CC(C)C)NC(=O)[C@H](CCC(N)=O)NC(=O)[C@H](CCCNC(=N)N)NC(=O)[C@H](Cc3c[nH]c4ccccc34)NC(=O)[C@H](Cc3ccc(O)cc3)NC(=O)[C@H](CCCNC(=N)N)NC(=O)[C@H](CCCCNC(C)=O)NC(=O)[C@H](Cc3ccccc3)NC(=O)[C@@H](NC(=O)[C@H](CC(C)C)NC(C)=O)[C@@H](C)O)C(=O)N[C@@H](CO)C(N)=O)CC2C(N)=O)cc1` (some centres not stated) (Ac-LTFK(Ac)RYWRQLK(X1)S-NH2), the result was inactive.

For the compound Ac-LTFEHYWAQLTS-NH2, the outcome was inactive.
